Test results: patent US10155004B2, “17-hydroxy-17-pentafluoroethyl-estra-4,9(10)-dien-11-aryl derivatives, method of production thereof and use thereof for the treatment of diseases” (BAYER INTELLECTUAL PROPERTY GMBH, priority 2009, dated 2018)

What was measured:
[1] = molecular target: T1, human progesterone receptor A (Homo sapiens, UniProt P06401); assay: Progesterone receptor-antagonistic action in stably transfected SK-N-MC cells, MTV-LUC reporter (PR-A); type: cell-based; conditions: for Progesterone receptor A (PR-A) Efficacy: antagonistic efficacy vs 0.1 nmol/l promegestone; for IC50: antagonism of 0.1 nmol/l promegestone, 24 hours, LUC reporter, read-out: Progesterone receptor A (PR-A) Potency IC50
T1 construct: expressed in transfected cells; host or cells: SK-N-MC human neuroblastoma cells, stably transfected
T1 sequence (P06401 1-769 isoform P06401-2): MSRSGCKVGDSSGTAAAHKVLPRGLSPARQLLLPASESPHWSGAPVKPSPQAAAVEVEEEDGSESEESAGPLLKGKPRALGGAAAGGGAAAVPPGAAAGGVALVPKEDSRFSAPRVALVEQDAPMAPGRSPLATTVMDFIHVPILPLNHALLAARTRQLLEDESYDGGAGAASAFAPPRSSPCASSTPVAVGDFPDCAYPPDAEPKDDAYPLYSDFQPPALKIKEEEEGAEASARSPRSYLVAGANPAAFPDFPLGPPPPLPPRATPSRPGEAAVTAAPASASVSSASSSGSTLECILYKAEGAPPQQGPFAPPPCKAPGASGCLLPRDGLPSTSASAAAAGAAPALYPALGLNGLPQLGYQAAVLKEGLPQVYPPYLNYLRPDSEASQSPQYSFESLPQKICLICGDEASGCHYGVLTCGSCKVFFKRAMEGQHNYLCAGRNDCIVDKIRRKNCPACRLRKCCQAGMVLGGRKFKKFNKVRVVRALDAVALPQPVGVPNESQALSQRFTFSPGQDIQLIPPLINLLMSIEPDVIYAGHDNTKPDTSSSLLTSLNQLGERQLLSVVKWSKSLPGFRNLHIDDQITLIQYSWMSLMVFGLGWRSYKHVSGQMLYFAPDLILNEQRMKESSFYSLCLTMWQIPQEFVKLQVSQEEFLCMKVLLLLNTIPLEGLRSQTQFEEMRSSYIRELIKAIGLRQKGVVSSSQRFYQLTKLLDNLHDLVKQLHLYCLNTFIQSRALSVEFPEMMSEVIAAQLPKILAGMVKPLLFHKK
Experimental: (§1) EXAMPLE 16 PROGESTERONE RECEPTOR-ANTAGONISTIC ACTION IN STABLE TRANSFECTANTS OF HUMAN NEUROBLASTOMA CELLS (SK-N-MC CELLS) WITH THE HUMAN PROGESTERONE A OR PROGESTERONE B RECEPTOR AND AN MTV-LUC REPORTER CONSTRUCT
(§2) SK-N-MC cells (human neuroblastoma cells), which have been stably transfected with plasmids, which express the human progesterone receptor B (pRChPR-B-neo) or the human progesterone receptor A (pRChPR-A-neo) and a reporter construct (pMMTV-LUC), were incubated for 24 hours either in the absence (negative control) or in the presence of increasing amounts of the respective test compound (0.01 nmol/l, 0.1 nmol/l 1 nmol/l, 10 nmol/l, 100 nmol/l and 1 μmol/l), in order to determine the agonistic efficacy. As positive control of reporter gene induction, the cells were treated with the synthetic gestagen promegestone (0.01 nmol/l, 0.1 nmol/l, 1 nmol/l, 10 nmol/l, 100 nmol/l and 1 μmol/l). For determination of the antagonistic activity, the cells were treated with 0.1 nmol/1 promegestone and additionally with increasing amounts of the respective test compound (0.01 nmol/l, 0.1 nmol/l, 1 nmol/l, 10 nmol/l, 100 nmol/l and 1 μmol/l). The activity of the LUC reporter gene (LUC=luciferase) was determined in the cell lysates and was measured as RLU (relative light units). All measured values are given as percentage efficacy and as EC50 or IC50 concentrations.
(§3) 11β-(4-Acetylphenyl)-20,20,21,21,21-pentafluoro-17-hydroxy-19-nor-17α-pregna-4,9-dien-3-one and 20,20,21,21,21-pentafluoro-17-hydroxy-11β-[4-(hydroxyacetyl)phenyl]-19-nor-17α-pregna-4,9-dien-3-one, very potent and therefore preferred examples from WO98/34947 and WO2008/058767, were tested as comparative compounds along with the test compound.

[2] = molecular target: T2, human progesterone receptor B (Homo sapiens, UniProt P06401); assay: Progesterone receptor-antagonistic action in stably transfected SK-N-MC cells, MTV-LUC reporter (PR-B); type: cell-based; conditions: for Progesterone receptor B (PR-B) Efficacy: antagonistic efficacy vs 0.1 nmol/l promegestone; for IC50: antagonism of 0.1 nmol/l promegestone, 24 hours, LUC reporter, read-out: Progesterone receptor B (PR-B) Potency IC50
T2 construct: expressed in transfected cells; host or cells: SK-N-MC human neuroblastoma cells, stably transfected
T2 sequence (P06401 1-933): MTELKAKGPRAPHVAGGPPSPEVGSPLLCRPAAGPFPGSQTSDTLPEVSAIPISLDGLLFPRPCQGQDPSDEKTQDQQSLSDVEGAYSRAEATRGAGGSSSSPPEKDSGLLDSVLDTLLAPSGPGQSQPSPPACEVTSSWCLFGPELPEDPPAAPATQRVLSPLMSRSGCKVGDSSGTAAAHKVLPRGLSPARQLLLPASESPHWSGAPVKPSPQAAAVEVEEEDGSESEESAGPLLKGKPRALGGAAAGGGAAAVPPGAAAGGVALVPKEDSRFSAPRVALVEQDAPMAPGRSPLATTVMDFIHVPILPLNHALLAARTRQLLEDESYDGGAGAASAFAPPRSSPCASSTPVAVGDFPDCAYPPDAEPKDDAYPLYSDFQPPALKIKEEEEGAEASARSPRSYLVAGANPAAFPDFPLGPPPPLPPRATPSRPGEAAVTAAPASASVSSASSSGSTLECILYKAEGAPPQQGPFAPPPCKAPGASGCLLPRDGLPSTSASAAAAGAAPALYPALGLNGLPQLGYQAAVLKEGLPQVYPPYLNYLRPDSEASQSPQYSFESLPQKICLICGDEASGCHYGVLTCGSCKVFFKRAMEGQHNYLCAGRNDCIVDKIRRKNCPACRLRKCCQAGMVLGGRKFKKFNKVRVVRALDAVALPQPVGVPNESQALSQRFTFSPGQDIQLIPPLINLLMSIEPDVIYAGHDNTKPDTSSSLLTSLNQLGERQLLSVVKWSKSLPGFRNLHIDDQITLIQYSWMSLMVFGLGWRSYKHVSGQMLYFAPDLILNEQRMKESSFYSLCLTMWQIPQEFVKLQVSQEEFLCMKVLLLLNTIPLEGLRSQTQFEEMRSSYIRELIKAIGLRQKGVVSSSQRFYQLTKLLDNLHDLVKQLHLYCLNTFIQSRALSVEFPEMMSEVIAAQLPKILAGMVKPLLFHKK
Experimental: as §1, §2, §3

[3] = test system: pregnant rats; assay: Abortion test on female rats (termination of early pregnancy); type: in vivo, rat; conditions: d5-d7 p.c., autopsy d9 p.c.
Experimental: EXAMPLE 17 ABORTION TEST ON FEMALE RATS
The action of progesterone and of the progesterone receptor is a fundamental precondition for successful pregnancy or gestation in mammals. The progesterone-antagonistic action of the compounds according to the invention was tested on pregnant rats (6 rats per group) on day 5 to 7 post coitum with conventional housing and feeding conditions.
After successful hand mating, the pregnant animals (presence of sperm in the vaginal smear on day 1 of pregnancy=d1 p.c.) were randomized and divided into the treatment group and the control group. The animals then each received subcutaneously or orally 0.15; 0.5; 1.5 or 5 mg/kg of the test compound or 1.0 ml/kg of vehicle (benzyl benzoate/castor oil: 1+4 [v/v]) daily from day 5 to day 7 (d5-d7 p.c.).
Autopsy was carried out on day 9 (d9 p.c.). As a characteristic of progesterone receptor antagonistic action, the uterus was examined for the presence of nidation sites. Complete absence, or also the presence of pathological, haemorrhagic or otherwise abnormal nidation sites on day 9 (d9 p.c.) was assessed as abortion.

[4] = daily dose 0.5 mg/kg s.c. or p.o.
[5] = daily dose 1.5 mg/kg s.c. or p.o.
[6] = daily dose 5.0 mg/kg s.c. or p.o.

Row | Compound | Progesterone receptor A (PR-A) Efficacy [1] [%] | Progesterone receptor B (PR-B) Efficacy [2] [%] | IC50 [1] [nM] | IC50 [2] [nM] | further results
1 | C[S+]([O-])c1ccc([C@H]2C[C@@]3(C)[C@@H](CC[C@@]3(O)C(F)(F)C(F)(F)F)[C@@H]3CCC4=CC(=O)CCC4=C32)cc1 (mixture of isomers) [Example 3, (11β,17β)-17-Hydroxy-11-{4-[(RS)-methylsulphinyl]phenyl}-17-(pentafluoroethy)estra-4,9-dien-3-one] | 100 | 100 |  |  | 
2 | CC(=O)c1ccc(C2CC3(C)C(CCC3(O)C(F)(F)C(F)(F)F)C3CCC4=CC(=O)CCC4=C23)cc1 (stereo not drawn) [11β-(4-Acetylphenyl)-20,20,21,21,21-pentafluoro-17-hydroxy-19-nor-17α-pregna-4,9-dien-3-one, reference compound] |  |  | 0.014 | 0.02 | 
3 | CSc1ccc([C@H]2C[C@@]3(C)[C@@H](CC[C@@]3(O)C(F)(F)C(F)(F)F)[C@@H]3CCC4=CC(=O)CCC4=C32)cc1 [Example 1, (11β,17β)-17-hydroxy-11-[4-(methylsulphanyl)phenyl]-17-(pentafluoroethyl)estra-4,9-dien-3-one] | 100 | 100 |  |  | Abortion rate [3, 4]: 80%; Abortion rate [3, 5]: 100%; Abortion rate [3, 6]: 100%
4 | CCSc1ccc([C@H]2C[C@@]3(C)C(CC[C@@]3(O)C(F)(F)C(F)(F)F)C3CCC4=CC(=O)CCC4=C32)cc1 (stereo partly drawn) [Example 2, (11β,17β)-11-[4-(ethylsulphanyl)phenyl]-17-hydroxy-17-(pentafluoroethyl)estra-4,9-dien-3-one] |  |  | 0.01 |  | 
5 | C[C@]12C[C@H](c3ccc(S(C)(=N)=O)cc3)C3=C4CCC(=O)C=C4CCC3C1CC[C@@]2(O)C(F)(F)C(F)(F)F (stereo partly drawn) [Example 8, (11β,17β)-17-Hydroxy-11-[4-(RS-methylsulphonimidoyl)phenyl]-17-(pentafluoroethyl)estra-4,9-dien-3-one] | 100 | 100 |  |  | Abortion rate ([3]; daily dose 0.15 mg/kg s.c. or p.o.): 40%; Abortion rate [3, 4]: 100%; Abortion rate [3, 5]: 100%; Abortion rate [3, 6]: 100%
6 | CSc1ccc(-c2ccc([C@H]3C[C@@]4(C)[C@@H](CC[C@@]4(O)C(F)(F)C(F)(F)F)[C@@H]4CCC5=CC(=O)CCC5=C43)cc2)cc1 [Example 9, (11β,17β)-17-Hydroxy-11-[4′-(methylsulphanyl)biphenyl-4-yl]-17-(pentafluoroethy)estra-4,9-dien-3-one] |  |  | 0.01 | 0.01 | 
7 | CN(C)S(=O)(=O)c1ccc(-c2ccc([C@H]3C[C@@]4(C)[C@@H](CC[C@@]4(O)C(F)(F)C(F)(F)F)[C@@H]4CCC5=CC(=O)CCC5=C43)cc2)cc1 [Example 14, 4′-[(11β,17β)-17-hydroxy-3-oxo-17-(pentafluoroethyl)estra-4,9-dien-11-yl]-N,N-dimethylbiphenyl-4-sulphonamide] |  |  | 0.01 |  | 
8 | CN(C)S(=O)(=O)c1ccc([C@H]2C[C@@]3(C)[C@@H](CC[C@@]3(O)C(F)(F)C(F)(F)F)[C@@H]3CCC4=CC(=O)CCC4=C32)cc1 [Example 15, 4-[(11β,17β)-17-Hydroxy-3-oxo-17-(pentafluoroethy)estra-4,9-dien-11-yl]-N,N-dimethylbenzene Sulphonamide] |  |  | 0.1 | 0.2 | 
